# Key:
# BhorOBPm2 [1] = biological target: T1, BhorOBPm2 (Batocera horsfieldi, UniProt D4P5A8); experiment: 1-NPN fluorescence competition binding; conditions: pH 7.4, 30 mM Tris-HCl, room temperature, 2 μM protein, 2 μM 1-NPN
# T1 construct: antennal cDNA, ORF 435 bp, 145 residues printed incl; 21-residue signal peptide; reverse primer encodes ETFIFF-stop
# BhorOBPm2 [2] = biological target: T1, BhorOBPm2; experiment: direct 1-NPN fluorescence titration, Scatchard plot; format: binding; conditions: 30 mM Tris-HCl, room temperature, 2 μM protein, 0-28 μM 1-NPN; fluorescent probe
# CquiOBP1 = conditions: cited from earlier work
# BhorOBPm2 [3] = experiment: Fluorescence competition-binding assay with 1-NPN probe, wild-type BhorOBPm2; set-up: species or system Batocera horsfieldi; conditions: BhorOBPm2, discussion
# Description: Fluorescence competition-binding assays were performed to determine the binding affinity of the BhorOBPm2 protein for various ligands using 1-NPN as a fluorescent probe. […] The fluorescence of 1-NPN was excited at 337 nm, and emission was recorded at between 350 nm and 600 nm using a RF-5301PC fluorescence spectrophotometer (Shimadzu, Kyoto, Japan), a 1-cm light path, and a quartz cuvette. The competitive binding of ligands was measured using 1-NPN (2 μM) as the fluorescent probe with a stoichiometry of 1:1 (protein:ligand), with the final concentration of each ligand added to the sample ranging from 0 μM to 20 μM. […] The binding data were obtained from three independent measurements. […] Binding affinities (Ki) of the OBPs for each ligand were determined based on the IC50 value (the initial fluorescence level of the competitor concentration reduced by half) using the equation: Ki = [IC50]/(1 + [1-NPN]/K1-NPN), where [1-NPN] is the free concentration of 1-NPN, and K1-NPN is the dissociation constant of the complex BhorOBPm2/1-NPN.
# BhorOBPm2 [4] = biological target: T1, BhorOBPm2; experiment: 1-NPN fluorescence competition binding; conditions: pH 7.4, 30 mM Tris-HCl, room temperature, 2 μM protein, 2 μM 1-NPN; reciprocal Ki, not Ki itself
# T1 sequence (D4P5A8 entry or part of it): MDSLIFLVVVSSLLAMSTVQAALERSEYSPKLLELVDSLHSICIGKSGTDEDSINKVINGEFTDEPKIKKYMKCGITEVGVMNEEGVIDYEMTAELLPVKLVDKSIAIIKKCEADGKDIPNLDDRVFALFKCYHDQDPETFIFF
Compound,1/Ki*1000 (BhorOBPm2 [1]),further results
CCCCCCCCCCCC(C)=O [2-tridecanone],353.05 1/Ki(uM)*1000,–
c1ccc(Nc2cccc3ccccc23)cc1 [N-phenyl-1-naphthylamine],–,Kd (BhorOBPm2 [2]): The dissociation constants (Kd) of the OBPs for 1-NPN were calculated from Scatchard plots
"CCCCCCCC=O [Octanal, octanal]",–,binding affinity (in words) (CquiOBP1): high binding affinities
CCCCCCCCCC=O [decanal],102.21 1/Ki(uM)*1000,binding affinity (in words) (CquiOBP1): high binding affinities
CCCCCCCCCCCCCCCCCCCCCCCCCCC [heptacosane],45.56 1/Ki(uM)*1000,binding affinity (in words) (BhorOBPm2 [3]): low binding affinities
CCCCCCCCC=O [nonanal],50.40 1/Ki(uM)*1000,binding affinity (in words) (CquiOBP1): high binding affinities
CCCCCCCC=O [octanal],54.09 1/Ki(uM)*1000,–
CCCCCCCCCCCCCCCCCCCCCCCCC [pentacosane],1.89 1/Ki(uM)*1000,binding affinity (in words) (BhorOBPm2 [3]): low binding affinities
CCCCCCCCCCCCCC [tetradecane],94.91 1/Ki(uM)*1000,–
CCCCCCCCCCCCC [tridecane],262.09 1/Ki(uM)*1000,–
Farnesene,–,"1/Ki(μM) × 1000 (BhorOBPm2 [4]): 1159.11 1000/μM (reciprocal of Ki in μM, times 1000)"
farnesene,–,binding affinity (in words) (BhorOBPm2 [3]): highest binding affinity

# — publication PMC5034290, “Predicted structure of a Minus-C OBP from Batocera horsfieldi (Hope) suggests an intermediate structure in evolution of OBPs” (Scientific Reports, 2016)
